Among the data in patent US9526796B2, “Peptide-based in vivo siRNA delivery system” (priority 2010, dated 2016) are percent knockdown values, retold here.

Non-standard residues stand in square brackets, D forms with d. No end group written: not given here. Nle = CCCC[C@H](N)C(=O)O

The test system of the first assay is ApoB. The assay can be described thus: Knockdown of endogenous serum ApoB in mice after co-injection of masked melittin delivery peptide and ApoB siRNA-cholesterol conjugate. The class given is in vivo. The note with it: CDM-NAG (5×); 50 μg peptide per mouse; 100 μg siRNA per mouse. The protocol:
RNAi polynucleotide conjugates and masked melittin peptides were synthesized as described above. Six to eight week old mice (strain C57BL/6 or ICR, ˜18-20 g each) were obtained from Harlan Sprague Dawley (Indianapolis Ind.). Mice were housed at least 2 days prior to injection. Feeding was performed ad libitum with Harlan Teklad Rodent Diet (Harlan, Madison Wis.). Mice were injected with 0.2 mL solution of delivery peptide and 0.2 mL siRNA conjugates into the tail vein. For simultaneous injection of delivery peptide and siRNA, the siRNA-conjugate was added to modified peptide prior to injection and the entire amount was injected. The composition was soluble and nonaggregating in physiological conditions. Solutions were injected by infusion into the tail vein.
Mice were fasted for 4 h (16 h for rats) before serum collection by submandibular bleeding. For rats blood was collected from the jugular vein. Serum ApoB protein levels were determined by standard sandwich ELISA methods. Briefly, a polyclonal goat anti-mouse ApoB antibody and a rabbit anti-mouse ApoB antibody (Biodesign International) were used as capture and detection antibodies respectively. An HRP-conjugated goat anti-rabbit IgG antibody (Sigma) was applied afterwards to bind the ApoB/antibody complex. Absorbance of tetramethyl-benzidine (TMB, Sigma) colorimetric development was then measured by a Tecan Safire2 (Austria, Europe) microplate reader at 450 nm.
Melittin was reversibly modified with CDM-NAG as described above. The indicated amount of melittin was then co-injected with the 200 μg ApoB siRNA-cholesterol conjugate. Effect on ApoB levels were determined as described above.
Melittin was reversibly modified with CDM-NAG as described above. The indicated amount of melittin was then co-injected with 50 μg ApoB siRNA-cholesterol conjugate. Effect on ApoB levels were determined as described above.
Melittin was reversibly modified with CDM-NAG (5×) as described above. The indicated amount of melittin was then co-injected with the indicated amount of ApoB siRNA-cholesterol conjugate. Effect on ApoB levels were determined as described above.
Melittin was reversibly modified with the indicated amount of CDM-NAG as described above. 50 μg melittin was then co-injected with the 100 μg ApoB siRNA-cholesterol conjugate. Effect on ApoB levels were determined as described above.
Melittin peptides having the indicated sequence were reversibly modified with CDM-NAG (5×) as described above. The indicated amount of melittin was then co-injected with the indicated amount of ApoB siRNA-cholesterol conjugate. Effect on ApoB levels were determined as described above.
Melittin peptides containing the indicated PEG amino terminal modifications were synthesized as described above. The PEG amino terminal modified melittin peptides were then reversibly modified with 5×CDM-NAG as described above. The indicated amount of Melittin was then co-injected with the 100-200 μg ApoB siRNA-cholesterol conjugate. Effect on ApoB levels were determined as described above. Addition of PEG less than 5 kDa in size decreased toxicity of the melittin peptides.
Regarding “G1dI (D form Ile at 1^st position, Seq ID 6): melittin peptide derivative ([dI]IGAILKVLATGLPTLISWIKNKRKQ)”, the percent knockdown is listed as 34%.

Still in this assay, the particulars now being: CDM-NAG (5×); 80 μg peptide per mouse; 100 μg siRNA per mouse.
The substance “G1Y, K7N (Seq ID 16): melittin peptide derivative (YIGAILNVLATGLPTLISWIKNKRKQ; melittin-like peptide derive from Apis florea)” displayed a percent knockdown of 32%.

“G12L (Seq ID 13): melittin peptide derivative (GIGAILKVLATLLPTLISWIKNKRKQ; melittin-like peptide derive from Apis florea)” yielded a percent knockdown of 58%.

The assay is the same for the next values; noted with them: CDM-NAG (5×); 100 μg peptide per mouse; 50 μg siRNA per mouse.
“G1L, T11C dMel (Seq ID 21): melittin peptide derivative ([dL][dI]G[dA][dI][dL][dK][dV][dL][dA][dC]G[dL][dP][dT][dL][dI][dS][dW][dI][dK][dN][dK][dR][dK][dQ])” registered a percent knockdown of 81%.

For “G1Y dMel (Seq ID 11): G1Y melittin peptide having D-form amino acids ([dY][dI]G[dA][dI][dL][dK][dV][dL][dA][dT]G[dL][dP][dT][dL][dI][dS][dW][dI][dK][dN][dK][dR][dK][dQ])”, the percent knockdown came to 95%.

The assay is the same for the next values; noted with them: CDM-NAG (5×); 100 μg peptide per mouse; 100 μg siRNA per mouse.
As to “G1L, I2Nle, I5Nle, I17Nle, I20Nle (Seq ID 44): melittin peptide derivative (L[Nle]GA[Nle]LKVLATGLPTL[Nle]SW[Nle]KNKRKQ)”, the percent knockdown is 99%. As to “G1L, I2V, I5V, I17V, I20V (Seq ID 45): melittin peptide derivative (LVGAVLKVLATGLPTLVSWVKNKRKQ; melittin-like peptide derive from Apis florea)”, the percent knockdown is listed as 24%. The same measure, in the same setting: the result for “G1L, K7H (Seq ID 20): melittin peptide derivative (LIGAILHVLATGLPTLISWIKNKRKQ; melittin-like peptide derive from Apis florea)” reads 97%. The substance “G1L, K7R (Seq ID 19): melittin peptide derivative (LIGAILRVLATGLPTLISWIKNKRKQ; melittin-like peptide derive from Apis florea)” displayed a percent knockdown of 92%. In turn, “G1L, K7S (Seq ID 18): melittin peptide derivative (LIGAILSVLATGLPTLISWIKNKRKQ; melittin-like peptide derive from Apis florea)” gave a percent knockdown of 89%. On the same count and under the same terms, to “G1L, K21A (Seq ID 28): melittin peptide derivative (YIGAILKVLATGLPTLISWIANKRKQ; melittin-like peptide derive from Apis florea)” belongs 95%; to “G1L, R24A (Seq ID 30): melittin peptide derivative (LIGAILKVLATGLPTLISWIKNKAKQ; melittin-like peptide derive from Apis florea)”, 87%.

With “G1L, S18C (Seq ID 25): melittin peptide derivative (LIGAILKVLATGLPTLICWIKNKRKQ; melittin-like peptide derive from Apis florea)”, the percent knockdown was 93%.

Take “G1L, T11C, S18C dMel (Seq ID 38): melittin peptide derivative ([dL][dI]G[dA][dI][dL][dK][dV][dL][dA][dC]G[dL][dP][dT][dL][dI][dC][dW][dI][dK][dN][dK][dR][dK][dQ]; cysteine pairing not given here)”: the percent knockdown is reported as 88%. In turn, “G1L, T15C dMel (Seq ID 24): melittin peptide derivative ([dL][dI]G[dA][dI][dL][dK][dV][dL][dA][dT]G[dL][dP][dC][dL][dI][dS][dW][dI][dK][dN][dK][dR][dK][dQ])” displayed a percent knockdown of 95%. Regarding “G1Nle (Seq ID 8): melittin peptide derivative ([Nle]IGAILKVLATGLPTLISWIKNKRKQ)”, the percent knockdown stood at 96%. Substance “G1V (Seq ID 9): melittin peptide derivative (VIGAILKVLATGLPTLISWIKNKRKQ; melittin-like peptide derive from Apis florea)” came in with a percent knockdown of 91%. “G1Y Mel-PLGIAGQC (Seq ID 66): melittin peptide derivative (YIGAILKVLATGLPTLISWIKNKRKQPLGIAGQC; C-terminal PLGIAGQC extension; melittin-like peptide derive from Apis florea)” registered a percent knockdown of 79%.

“G1Y, K7A, K21A (Seq ID 35): melittin peptide derivative (YIGAILAVLATGLPTLISWIANKRKQ; melittin-like peptide derive from Apis florea)” came in with a percent knockdown of 14%. Substance “G1Y, K23A (Seq ID 29): melittin peptide derivative (YIGAILKVLATGLPTLISWIKNARKQ; melittin-like peptide derive from Apis florea)” showed a percent knockdown of 42%. As to “G1Y, K25A (Seq ID 31): melittin peptide derivative (YIGAILKVLATGLPTLISWIKNKRAQ; melittin-like peptide derive from Apis florea)”, the percent knockdown was 77%. The substance “G1Y, Q26C (Seq ID 32): melittin peptide derivative (YIGAILKVLATGLPTLISWIKNKRKC; melittin-like peptide derive from Apis florea)” yielded a percent knockdown of 93%.

The assay is the same for the next values; noted with them: CDM-NAG (5×); 200 μg peptide per mouse; 200 μg siRNA per mouse.
As to “G1W (Seq ID 10): melittin peptide derivative (WIGAILKVLATGLPTLISWIKNKRKQ; melittin-like peptide derive from Apis florea)”, the percent knockdown turned out to be 96%. As to “G1Y-Mel-NH2 (Seq ID 110): melittin peptide derivative (YIGAILKVLATGLPTLISWIKNKRKQ-NH2)”, the percent knockdown was found to be 94%.

Staying with this assay, now noted: CDM-NAG (5×); 400 μg peptide per mouse; 50 μg siRNA per mouse.
On to “G1Nle Mel-C (Seq ID 64): melittin peptide derivative ([Nle]IGAILKVLATGLPTLISWIKNKRKQC)”, for which the percent knockdown is 89%.

Still in this assay, the particulars now being: CDM-NAG (5×); 400 μg peptide per mouse; 100 μg siRNA per mouse.
Consider “G1L, I2L, 15L, I17L, I20L (Seq ID 43): melittin peptide derivative (LLGALLKVLATGLPTLLSWLKNKRKQ; melittin-like peptide derive from Apis florea)”, for which the percent knockdown came to 96%. Substance “G1L, L5V, A10T, T15A Mel (1-23) (Seq ID 72): melittin peptide derivative” gave a percent knockdown of 69%. The same measure, in the same setting: the result for “G1L, L5V, A10T, T15A, N22G, K23E dMel (1-23) (Seq ID 73): melittin peptide derivative” reads 92%; that for “G1L, Mel-KKKKK (Seq ID 67): melittin peptide derivative (LIGAILKVLATGLPTLISWIKNKRKQKKKKK; C-terminal KKKKK extension; melittin-like peptide derive from Apis florea)”, 96%; that for “G1Y dMel-GFKGC (Seq ID 68): melittin peptide derivative ([dY][dI]G[dA][dI][dL][dK][dV][dL][dA][dT]G[dL][dP][dT][dL][dI][dS][dW][dI][dK][dN][dK][dR][dK][dQ]GFKGC)”, 96%. Substance “G1Y, K7A (Seq ID 17): melittin peptide derivative (YIGAILAVLATGLPTLISWIKNKRKQ; melittin-like peptide derive from Apis florea)” displayed a percent knockdown of 83%.
